# Tests used:
# CDK8/Cyclin C = CDK8/Cyclin C (Homo sapiens (Human), UniProt P49336); assay: LanthaScreen binding to recombinant CDK8/Cyclin C; conditions: TR-FRET, Tracer 236 10 nM, CDK8/Cyclin C 5 nM
# MV4-11 cells = assay: Antiproliferative activity, MV4-11 cells (AlamarBlue); assay type: cell-based; conditions: Homo sapiens, 120 h incubation, read-out: MV-4-11 IC50
# KG-1 cells = assay: Antiproliferative activity, KG-1 cells (AlamarBlue); assay type: cell-based; conditions: Homo sapiens, KG-1, 120 h, 120 h incubation
# Chain of CDK8/Cyclin C (P49336 whole entry): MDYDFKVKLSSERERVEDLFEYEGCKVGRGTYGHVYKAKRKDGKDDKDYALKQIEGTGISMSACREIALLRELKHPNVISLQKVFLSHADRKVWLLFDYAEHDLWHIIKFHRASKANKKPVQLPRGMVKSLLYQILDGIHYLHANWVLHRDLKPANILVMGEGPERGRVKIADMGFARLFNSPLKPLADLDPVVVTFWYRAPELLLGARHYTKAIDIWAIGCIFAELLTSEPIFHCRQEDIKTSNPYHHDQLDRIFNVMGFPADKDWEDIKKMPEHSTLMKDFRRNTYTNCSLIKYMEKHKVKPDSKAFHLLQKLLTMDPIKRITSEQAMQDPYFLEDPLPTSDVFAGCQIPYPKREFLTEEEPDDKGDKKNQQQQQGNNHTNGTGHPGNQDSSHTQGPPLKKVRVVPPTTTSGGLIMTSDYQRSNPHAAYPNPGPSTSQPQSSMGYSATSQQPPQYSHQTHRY
# Chain of CDK8/Cyclin C (P24863 whole entry partner): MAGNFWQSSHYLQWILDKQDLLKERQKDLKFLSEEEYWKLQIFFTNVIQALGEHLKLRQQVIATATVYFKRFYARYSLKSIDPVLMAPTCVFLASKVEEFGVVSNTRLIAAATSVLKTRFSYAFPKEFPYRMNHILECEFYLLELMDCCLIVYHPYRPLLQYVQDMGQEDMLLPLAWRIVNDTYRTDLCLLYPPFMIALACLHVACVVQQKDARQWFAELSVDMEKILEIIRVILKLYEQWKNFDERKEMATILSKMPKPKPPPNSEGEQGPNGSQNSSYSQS
IC50 (CDK8/Cyclin C),IC50 (MV4-11 cells),SMILES,IC50 (KG-1 cells)
1.63 nM,3.4 nM,"COCCn1cc(-c2ccc(-c3cnc(N)c4ncc(C(=O)NCC5CC5)cc34)cc2)cn1 [Compound 3.45, 8-amino-N-(cyclopropylmethyl)-5-(4-(1-(2-methoxyethyl)-1H-pyrazole-4-yl)phenyl)-1,7-naphthyridine-3-carboxamide]",0.1 nM
1.1 nM,3.9 nM,COCCn1cc(-c2ccc(-c3cnc(N)c4ncc(C(=O)NC5CC5)cc34)cc2)cn1 [Compound 3.48],2.7 nM
0.96 nM,0.9 nM,"CN(C)C(=O)Cn1cc(-c2ccc(-c3cnc(N)c4ncc(C(=O)N5CCC5)cc34)cc2)cn1 [Compound 3.52, 2-(4-(4-(8-amino-3-(azetidine-1-carbonyl)-1,7-naphthyridine-5-yl)phenyl)-1H-pyrazole-1-yl)-N,N-dimethylacetamide]",1.2 nM

# — patent US11840531B2, “CDK8/19 inhibitors” (JOINT STOCK COMPANY “BIOCAD”, priority 2018, dated 2023)
